# Measured values from EP3446753B1, “NEW THERAPEUTIC USES OF PEPTIDES OF THE ADIPOKINETIC HORMONE FAMILY” (Mutlu, Oguz, priority 2017, dated 2019).
# Where a name gives a salt, the structure may show the parent alone. Square brackets hold non-standard residues; d marks the D form. Peptide text beside a SMILES is read from it. pGlu = O=C1CC[C@@H](C(=O)O)N1
# Assays:
# [1] = system: Long Evans rats; experiment: Active Allothetic Place Avoidance test (AAPA), MK-801 model; format: in vivo; conditions: for MK-801 (0.15 mg/kg) induced cognitive memory impairment effects: peptide 2 mg/kg administered subchronically + MK-801 0.15 mg/kg, summary statement; for reversal of MK-801 increased locomotion (total distance (m) moved) / reversal of MK-801 decreased maximum time of avoidance (s) / reversal of MK-801 increased number of entries to the shock sector / reversal of MK-801 increased number of shocks: peptide 2 mg/kg i.p. + MK-801 0.15 mg/kg i.p., compared to MK-801 alone; for reversal of MK-801 increased locomotion (total distance (m) moved): 4 days (subchronically)
# Procedure: 3-4 month-old male rats of the Long Evans strain were used for the Active Allothetic Place Avoidance test and were obtained from the accredited breeding colony of the Institute of Physiology, Academy of Science, Prague. Rats were acclimatised for 7-10 days prior to testing, during which they were weighed twice and handled four times. Rats were housed in pairs in transparent plastic cages (30×30×40 cm) in an air-conditioned animal room with a constant temperature of 21 °C and with 12/12 light/dark cycle (lights on at 7:00). All animals received food and water ad libitum. All experiments respected the Guidelines of the European Union (86/609/EU) and the National Committee for the Care and Use of Laboratory Animals (Czech Republic) and were approved by the committee under the number: MEYSCR-27527/2012-31.
# In the Active Allothetic Place Avoidance test, Long Evans rats were treated with Ani-AKH (1 and 2 mg/kg) (n=8), Lia-AKH (1 and 2 mg/kg) (n=8), Pht-HrTH (1 and 2 mg/kg) (n=8), MK-801 (0.15 mg/kg) (n=8), Ani-AKH (2 mg/kg)+MK-801 (0.15 mg/kg) (n=8), Lia-AKH (2 mg/kg)+MK-801 (0.15 mg/kg) (n=8), Pht-HrTH (2 mg/kg)+MK-801 (0.15 mg/kg) (n=8) or vehicle (control group=saline with 15% DMSO) (n= 8) for 4 days (subchronically). Ani-AKH, Lia-AKH and Pht-HrTH were administered intraperitoneally (i.p.) 60 min. before the Active Allothetic Place Avoidance test while MK-801 was administered (i.p.) 40 min. before the test in a volume of 2ml/kg body weight. Separate group of animals were used in each test. The doses of the drugs were chosen according to the previous studies (Mutlu et al. 2016).
# (+)-MK-801 maleate ((5S,10R)-(+)-5-methyl-10,11-dihydro-5H-dibenzo(a, d)-cyclo-hepten-5,10-imine maleate) was obtained from Tocris Bioscience, United Kingdom. Anax imperator AKH (Ani-AKH), Libellula auripennis AKH (Lia-AKH) and Phormia-Terra hypertrehalosemic hormone (Pht-HrTH) were purchased from TRC (Toronto/Canada). MK-801 was dissolved in saline while AKH was dissolved in saline mixed with 15% DMSO. Saline with 15% DMSO was used as control group.
# The Active Allothetic Place Avoidance Test is a spatial memory test that can determine the ability of animals to organize their behavior efficiently in both normal and pathological conditions. Successful performance in the test requires the rat to solve a conflict between two discordant subsets of spatial stimuli (extramaze and intramaze cues). It is believed that successful performance in the Active Allothetic Place Avoidance Test, where the rat has to differentiate between relevant and irrelevant stimuli, depends on the mode of information processing disturbed in schizophrenic patients (Bubenikova-Valesova et al., 2008b). The Active Allothetic Place Avoidance arena was described in detail in previous papers (Cimadevilla et al., 2001). Briefly, it consisted of a smooth metallic circular arena (82 cm in diameter), enclosed by a 30 cm high transparent Plexiglas wall. The arena was elevated 1 m above the floor of 4×5 m experimental room containing an abundance of extramaze landmarks. The arena together with the wall was rotated (1 rpm) by an electric motor placed underneath the arena disc. At the beginning of each training session, a rat was placed in the arena at a location opposite an imperceptible 60° to-be- avoided sector (shock sector), which was defined by the computer- based tracking system (iTrack, Biosignal Group, USA), located in an adjacent room. The arena rotation started immediately after placement of the rat. The location of the shock sector could be determined solely by its spatial relation to the distal orienting cues located in the room. Rats were wearing a light latex harness, to which an infrared light-emitting diode (LED) was attached between the rat's shoulders. Whenever the rat entered the to-be-avoided sector for more than 500 ms (millisecond), the tracking system delivered a mild, constant-current shock (50 Hz, 0.5 s, 0.4-0.7 mA) and counted an entrance. […]
# [2] = system: Emperor dragonfly, Anax imperator; conditions: low concentrations of the synthetic peptide injected into the Emperor dragonfly; cited from earlier work
# [3] = MK-801 0.15 mg/kg i.p. alone, 4 days, compared to control
Structure (SMILES),"locomotion (total distance (m) moved) [1, 3]","maximum time of avoidance (s) [1, 3]","number of entries to the shock sector [1, 3]","number of shocks [1, 3]",MK-801 (0.15 mg/kg) induced cognitive memory impairment effects [1],reversal of MK-801 increased locomotion (total distance (m) moved) [1],reversal of MK-801 decreased maximum time of avoidance (s) ([1]; 4 days),reversal of MK-801 increased number of entries to the shock sector ([1]; 4 days),reversal of MK-801 increased number of shocks ([1]; 4 days),haemolymph lipid concentration [2]
"C[C@]12N[C@H](Cc3ccccc31)c1ccccc12 [MK-801, (5S,10R)-(+)-5-methyl-10,11-dihydro-5H-dibenzo(a, d)-cyclo-hepten-5,10-imine maleate]",significantly increased locomotion,significantly decreased maximum time of avoidance,significantly increased number of entries,significantly increased number of shocks,,,,,,
"CC(C)C[C@H](NC(=O)[C@@H]1CCC(=O)N1)C(=O)N[C@H](C(=O)N[C@@H](Cc1ccccc1)C(=O)N[C@@H](CO)C(=O)N1CCC[C@H]1C(=O)N[C@@H](CC(=O)O)C(=O)N[C@@H](Cc1c[nH]c2ccccc12)C(N)=O)[C@@H](C)O [Pht-HrTH, 5-oxo-L-prolyl-L-leucyl-L-threonyl-L-phenylalanyl-L-seryl-L-prolyl-L-alfa-aspartyl-L-Tryptophanamide] ([pGlu]LTFSPDW-NH2)",,,,,reverse,no reversing effect,significantly reversed this effect,significantly reversed this effect,significantly reversed this effect,
"CC(C)[C@H](NC(=O)[C@@H]1CCC(=O)N1)C(=O)N[C@@H](CC(N)=O)C(=O)N[C@@H](Cc1ccccc1)C(=O)N[C@H](C(=O)N1CCC[C@H]1C(=O)N[C@@H](CO)C(=O)N[C@@H](Cc1c[nH]c2ccccc12)C(N)=O)[C@@H](C)O [Lia-AKH, 5-oxo-L-prolyl-L-valyl-L-asparaginyl-L-phenylalanyl-L-threonyl-L-prolyl-L-seryl-L-Tryptophanamide] ([pGlu]VNFTPSW-NH2)",,,,,reverse,partial effect,significantly reversed this effect,significantly reversed this effect,significantly reversed this effect,
"CC(C)[C@H](NC(=O)[C@@H]1CCC(=O)N1)C(=O)N[C@@H](CC(N)=O)C(=O)N[C@@H](Cc1ccccc1)C(=O)N[C@@H](CO)C(=O)N1CCC[C@H]1C(=O)N[C@@H](CO)C(=O)N[C@@H](Cc1c[nH]c2ccccc12)C(N)=O [Ani-AKH, 5-oxo-L-prolyl-L-valyl-L-asparaginyl-L-phenylalanyl-L-seryl-L-prolyl-L-seryl-L-Tryptophanamide] ([pGlu]VNFSPSW-NH2)",,,,,reverse,significantly reversed,significantly reversed this effect,significantly reversed this effect,significantly reversed this effect,increased the haemolymph lipid concentration
